According to patent publication US9695222B2, “Ghrelin mimetic polypeptide hapten immunoconjugates having improved solubility and immunogenicity and methods of use thereof” (The Scripps Research Institute, priority 2011, dated 2017):
≈ marks a conversion by molar mass, not a printed value. Read-outs that look alike come from different tables or passages of the source. Non-standard residues stand in square brackets, D forms with d. Residues, ends and D or L forms follow the SMILES beside them. *: point of attachment. PEG4 = NCCOCCOCCOCCOCCC(=O)O; Octanoyl = CCCCCCCC(=O)*; Butyryl = CCCC(=O)*

Columns and labels:
[1] = physchem; conditions: water
[2] = tested on: Ser-3-n-octanoyl ghrelin; assay: Competition ELISA of plasma of immunized mice (Kd-app for ghrelin); assay type: binding; conditions: Tables 4A and 4B
Description: Immunization involved five (5) immunizations over ten (10) weeks. Age and weight-matched mice received immunizations (i.p. 0.2 mL) 90 min before the dark cycle on experimental days 0, 14 (2 weeks), 28 (4 weeks), 49 (7 weeks) and 70 (10 weeks). All immunizations used ALUM (Pierce) as the adjuvant, and contained 50 μg of protein (i.e. immunoconjugates of Ghr1, Ghr2, PEG-Ghr4 and PEG-Ghr5 peptides with carrier proteins KLH, TT or CRM197). Tail blood was collected one week post-immunization, centrifuged and plasma analyzed for antibody titers and ghrelin binding affinity.
For competitive ELISA, plates (96-well) were coated overnight at 4° C. with freshly prepared ghrelin-BSA conjugate. The plates were blocked with 4% skim milk, washed and plasma samples were added at appropriate dilutions. The plates were washed and Ser-3-n-octanoyl ghrelin was added to the wells in a concentration series starting at 100 μM. Plates were incubated for 1 h at 37° C., thoroughly washed, and goat anti-mouse-horseradish peroxidase (HRP) conjugate (Pierce) was added. After an incubation period of 1 h at RT, plates were thoroughly washed again and the HRP substrate (TMB substrate kit; Pierce) was added, the reaction was allowed to develop for 15 min and stopped by the addition of 2M H2SO4. The absorbance (450 nm) was read and the values plotted using GraFit (Erithacus Software Ltd). The free antigen concentration at which the absorbance value is 50% of the maximum absorbance was considered the average Kd-app of the plasma for ghrelin.

[3] = not given; remark: listed apart in the source
[4] = Hydrolytic stability of ghrelin haptens in buffered solutions for 7 days; assay type: physicochemical
Description: To test the hydrolytic stability of the Ghrelin haptens, 1 mg/mL solutions of Ghr1, Ghr4, Ghr5 and the corresponding Ghr4 and Ghr5 haptens comprising the spacer moiety (PEG-Ghr4 and PEG-Ghr5 respectively) were maintained in buffered solutions for 7 days at either 4° C. or 37° C. at pH values of pH5 (in 10 mM citrate buffer), pH6 (in 10 mM maleate buffer) or pH7 (in 10 mM phosphate buffer). FIG. 2 is a graphical representation comparing the percentage of the active acyl form of each Ghrelin hapten present after seven days with the percentage of total hydrolysis and the percentage of total oxidative degradation for each hapten.

Structure (SMILES): CCCCCCCC(=O)OC[C@H](NC(=O)[C@H](CO)NC(=O)CN)C(=O)N[C@@H](Cc1ccccc1)C(=O)N[C@@H](CC(C)C)C(=O)N[C@@H](CS)C(N)=O [Ghr5, GSS(octanoyl)FLC-NH2] (H-GSS(Octanoyl)FLC-NH2)
- Solubility of hapten at pH5: insoluble
- Solubility of hapten at pH6 (pH6): insoluble
- Solubility of hapten at pH7 (pH7): insoluble

Structure (SMILES): CCCC(=O)OC[C@H](NC(=O)[C@H](CO)NC(=O)CN)C(=O)N[C@@H](Cc1ccccc1)C(=O)N[C@@H](CC(C)C)C(=O)N[C@@H](CS)C(N)=O [Ghr4, GSS(butyryl)FLC-NH2] (H-GSS(Butyryl)FLC-NH2)
- Solubility of hapten at pH5: insoluble
- solubility ([1]; pH 6): > 1000 µg/mL
- solubility ([1]; pH 7): < 100 µg/mL

Structure (SMILES): CC(C)C[C@H](NC(=O)[C@H](CCCCN)NC(=O)[C@H](C)NC(=O)[C@@H]1CCCN1C(=O)[C@@H]1CCCN1C(=O)[C@H](CCCCN)NC(=O)[C@H](CCCCN)NC(=O)[C@H](CO)NC(=O)[C@H](CCC(=O)O)NC(=O)[C@H](CCCCN)NC(=O)[C@H](CCCNC(=N)N)NC(=O)[C@H](CCC(N)=O)NC(=O)[C@H](CCC(N)=O)NC(=O)[C@@H](N)CS)C(=O)N[C@@H](CCC(N)=O)C(=O)N1CCC[C@H]1C(=O)N[C@@H](CCCNC(=N)N)C(N)=O [Ghr2]
- Affinity of induced anti-ghrelin antibodies [2]: high affinity anti-ghrelin antibodies in some instances
- Selectivity of induced antibodies for acylated ghrelin over the des-acyl form [2]: no particular selectivity
- solubility ([1]; pH 5): > 1000 µg/mL
- solubility ([1]; pH 6): > 1000 µg/mL
- solubility ([1]; pH 7): > 1000 µg/mL

Structure (SMILES): CCCC(=O)OC[C@H](NC(=O)[C@H](CO)NC(=O)CN)C(=O)N[C@@H](Cc1ccccc1)C(=O)N[C@@H](CC(C)C)C(=O)NCCOCCOCCOCCOCCC(=O)N[C@@H](CS)C(N)=O [PEG-Ghr4, GSS(butyryl)FL-PEG4-C-NH2] (H-GSS(Butyryl)FL[PEG4]C-NH2)
- solubility ([3]; pH5): > 1000 µg/mL
- solubility ([3]; pH6): > 1000 µg/mL
- solubility ([3]; pH7): > 1000 µg/mL

Structure (SMILES): CCCCCCCC(=O)OC[C@H](NC(=O)[C@H](CO)NC(=O)CN)C(=O)N[C@@H](Cc1ccccc1)C(=O)N[C@@H](CC(C)C)C(=O)NCCOCCOCCOCCOCCC(=O)N[C@@H](CS)C(N)=O [PEG-Ghr5, GSS(octanoyl)FL-PEG4-C-NH2] (H-GSS(Octanoyl)FL[PEG4]C-NH2)
- Hydrolysis relative to Ghr5 without the spacer moiety ([4]; 7 days, FIG. 2): less hydrolysis
- Oxidative degradation relative to Ghr5 without the spacer moiety ([4]; 7 days, FIG. 2): significantly reduced oxidative degradation
- Hydrolysis compared with native protein (rGhrelin) ([4]; pH 5, 7 days, 4° C.): approximately the same amount of hydrolysis as the native protein
- Oxidative degradation compared with Ghr5 hapten ([4]; pH 5, 7 days, 4° C.): significantly less oxidative degradation
- solubility ([1]; pH 5): > 1000 µg/mL
- solubility ([1]; pH 6): > 1000 µg/mL
- solubility ([1]; pH 7): ~400 µg/mL (≈ 406 µM)

Structure (SMILES): CCCC(=O)OC[C@H](NC(=O)[C@H](CO)NC(=O)CN)C(=O)N[C@@H](Cc1ccccc1)C(=O)N[C@@H](CC(C)C)C(=O)N[C@@H](CO)C(=O)N1CCC[C@H]1C(=O)N[C@@H](CCC(=O)O)C(=O)N[C@@H](Cc1c[nH]cn1)C(=O)N[C@@H](CCC(N)=O)C(=O)N[C@@H](CS)C(N)=O [Ghr1]
- Affinity of induced anti-ghrelin antibodies [2]: high affinity anti-ghrelin antibodies in some instances
- Selectivity of induced antibodies for acylated ghrelin over the des-acyl form [2]: no particular selectivity
- solubility ([1]; pH 5): > 1000 µg/mL
- solubility ([1]; pH 6): > 1000 µg/mL
- solubility ([1]; pH 7): > 1000 µg/mL
